Assay results taken from US20240190851A1, “FURAN FUSED RING-SUBSTITUTED GLUTARIMIDE COMPOUND” (MEDSHINE DISCOVERY INC., priority 2021, published 2024).
Structures can show the parent of a compound that is named as a salt.

Target: T1, androgen receptor AR (Homo sapiens, UniProt P10275, T878A)
T1 construct: degradation effect of compounds on androgen receptor AR in LNCaP cells; endogenous in cells; host or cells: LNCaP
T1 sequence (P10275 1-920 T878A): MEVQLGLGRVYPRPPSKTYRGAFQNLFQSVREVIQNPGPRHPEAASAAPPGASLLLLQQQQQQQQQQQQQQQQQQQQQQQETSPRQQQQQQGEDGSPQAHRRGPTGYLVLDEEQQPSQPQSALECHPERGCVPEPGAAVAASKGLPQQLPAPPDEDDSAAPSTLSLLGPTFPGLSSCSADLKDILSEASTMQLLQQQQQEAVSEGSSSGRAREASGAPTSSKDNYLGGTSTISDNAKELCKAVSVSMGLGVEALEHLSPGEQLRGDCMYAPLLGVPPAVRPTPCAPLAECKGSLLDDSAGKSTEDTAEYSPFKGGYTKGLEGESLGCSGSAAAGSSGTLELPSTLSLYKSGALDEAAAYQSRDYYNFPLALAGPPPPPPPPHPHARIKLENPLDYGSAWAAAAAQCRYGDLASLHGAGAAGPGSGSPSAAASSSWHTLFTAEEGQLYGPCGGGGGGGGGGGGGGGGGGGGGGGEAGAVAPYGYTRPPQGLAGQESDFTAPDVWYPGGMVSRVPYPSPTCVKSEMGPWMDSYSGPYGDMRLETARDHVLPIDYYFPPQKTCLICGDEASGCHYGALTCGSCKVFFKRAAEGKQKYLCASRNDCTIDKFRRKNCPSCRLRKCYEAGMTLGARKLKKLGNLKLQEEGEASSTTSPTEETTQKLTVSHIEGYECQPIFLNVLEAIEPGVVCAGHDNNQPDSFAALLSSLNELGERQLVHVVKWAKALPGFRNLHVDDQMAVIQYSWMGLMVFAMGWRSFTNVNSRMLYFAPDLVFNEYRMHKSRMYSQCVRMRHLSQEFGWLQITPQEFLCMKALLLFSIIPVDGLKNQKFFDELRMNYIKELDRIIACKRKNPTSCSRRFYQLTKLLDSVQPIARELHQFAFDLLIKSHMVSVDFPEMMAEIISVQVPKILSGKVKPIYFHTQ
Assay: AR degradation in LNCaP cells by ICW method
Assay type: cell-based
Conditions: 24 hours
Procedure: Experimental purpose: To test the degradation effect of compounds on androgen receptor AR in LNCaP cells by ICW method.
Day 1 • 1. The cell culture medium, 0.025% trypsin, and phosphate buffered saline were preheated in a 37° C. water bath. • 2. Cells digested by trypsin were centrifuged at 1000 rpm for 5 minutes. The supernatant was discarded, and then the cells were resuspended in fresh culture medium. • 3. The cells were inoculated in a COL-Coated CellCarrier-384 plate at a density of 4 k/[…]/well. • 4. The 384 cell plate inoculated with cells was placed in an ultra-clean bench for 10 minutes. • 5. The cell plate was cultured overnight in a CO2 cell incubator.
Day 2 • 1. The compound at a concentration of 10 mM was diluted to 3 mM (3 μL+7 μL of dimethyl sulfoxide) before serial dilution. • 2. The compound was serially diluted 3-fold (4 μL+8 μL) in an Echo plate using Bravo. • 3. ZPE and HPE control wells were setup, and the ZPE control wells were dimethyl sulfoxide. • 4. The Echo plate was centrifuged at 1000 rpm for 1 minute, and then the diluted compound was transferred from the Echo plate to an intermediate plate using Echo with 200 nL/well. • 5. To the intermediate plate was added the cell culture medium using Multidrop combi with […]. • 6. The intermediate plate was shaken on a horizontal shaker for 1 minute to mix the compound well with the culture medium. • 7. The compound was transferred from the intermediate dilution plate to the cell plate using Bravo with 4 μL/well. • 8. The cell plate was shaken on the horizontal shaker for 1 minute, and centrifuged at 800 rpm for 30 seconds. • 9. The cell plate was returned to the CO2 incubator, and cultured for another 24 hours.
Day 3 • 1. 4% paraformaldehyde was removed from the refrigerator and brought to room temperature. • 2. The cell plate was removed from the incubator. • 3. To the cell plate was directly added 4% paraformaldehyde with 40 μL/well. • 4. The plate was incubated at room temperature for 20 minutes. • 5. The culture medium was manually shaken off from the cell plate, inverted in a centrifuge, and centrifuged at 800 rpm for 7 seconds to fully remove the residual culture medium. • 6. To the cell plate was added 4% paraformaldehyde with 25 μL/well. • 7. The plate was incubated at room temperature for 30 minutes. • 8. The paraformaldehyde solution was manually shaken off from the cell plate, inverted in the centrifuge, and centrifuged at 800 rpm for 7 seconds. • 9. 0.1% Trition was added with 25 μL/well. • 10. The plate was incubated at room temperature for 10 minutes. • 11. The 0.1% Trition solution was manually shaken off from the cell plate, inverted in the centrifuge, and centrifuged at 800 rpm for 7 seconds. • 12. Intercept® (PBS) blocking buffer was added with 25 μL/well. • 13. The plate was incubated at room temperature for 1 hour. • 14. The Intercept® (PBS) blocking buffer solution was manually shaken off from the cell plate, inverted in the centrifuge, and centrifuged at 800 rpm for 7 seconds. • 15. Primary antibody solution was added with 20 μL/well. The cell plate was placed in the centrifuge, and centrifuged at 800 rpm for 7 seconds. • 16. The cell plate was sealed, and then incubated overnight at 4° C.
Day 4 • 1. The primary antibody solution was manually shaken off from the cell plate, inverted in the centrifuge, and centrifuged at 800 rpm for 7 seconds. • 2. The plate was washed three times with 110 μL of PBS. • 3. The cell plate was inverted in the centrifuge, and centrifuged at 800 rpm for 7 seconds. • 4. Secondary antibody and DAPI solution was added with 20 μL/well. The cell plate was placed in the centrifuge, and centrifuged at 800 rpm for 7 seconds. • 5. The plate was incubated at room temperature for 1 hour. • 6. The secondary antibody and DAPI solution was manually shaken off from the cell plate, inverted in the centrifuge, and centrifuged at 800 rpm for 7 seconds. • 7. […]

| SMILES | DC50 [nM] | Dmax [%] |
| --- | --- | --- |
| N#Cc1ccc(O[C@H]2CC[C@H](NC(=O)c3ccc(N4CCC(CN5CCN(c6cccc7c6ccc6occ(C8CCC(=O)NC8=O)c67)CC5)CC4)nn3)CC2)cc1Cl (stereo partly shown) [Hydrochloride of WX015] | 13.7 | 102 |
| CC1(C)C(=O)N(c2ccc(C#N)c(C(F)(F)F)c2)C(=S)N1c1ccc(OCCN2CCN(CC(=O)Nc3ccc4c(C5CCC(=O)NC5=O)coc4c3)CC2)c(F)c1 (stereo not shown) [WX002] | 8.9 | 72 |
